Experimental data as given in patent publication US7285528B2, “Agonists and antagonists of gonadotropin-releasing hormone-2, and use thereof” (priority 2002, dated 2007).
Where a SMILES comes first, the peptide text is derived from it. [ ]: non-standard residue; d: D form. pGlu = O=C1CC[C@@H](C(=O)O)N1

Key:
[1] = molecular target: T1, rat GnRHR (Rattus norvegicus, UniProt P30969); assay: Inositol phosphate (IP) production, GH3 cells expressing rat GnRHR; format: cell-based; details: for sensitivity compared with GnRH-1: rat GnRHR
T1 construct: expressed in transfected cells; host or cells: GH3 cells, retrovirus-mediated infection
T1 sequence (P30969 1-327): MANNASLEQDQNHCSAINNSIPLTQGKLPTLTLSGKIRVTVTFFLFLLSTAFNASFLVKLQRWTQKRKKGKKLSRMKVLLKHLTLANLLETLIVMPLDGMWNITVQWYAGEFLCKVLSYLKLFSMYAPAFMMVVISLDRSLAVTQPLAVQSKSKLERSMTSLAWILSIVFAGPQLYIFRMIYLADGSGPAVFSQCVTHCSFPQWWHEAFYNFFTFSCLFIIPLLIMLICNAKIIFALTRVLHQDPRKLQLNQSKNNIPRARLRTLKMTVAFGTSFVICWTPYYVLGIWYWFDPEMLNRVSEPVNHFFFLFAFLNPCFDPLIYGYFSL
From the text: The GnRH receptor, a membrane protein connected with the G protein, activates the G protein when activated by a ligand, and the activated G protein activates phospholipase C and thereby the synthesis of inositol phosphate (IP), which is the second transmitter in cells, is increased. Based on this principle, the activity of a receptor can be investigated by measuring the amount of IP within cells. GH3 cell lines were obtained from the Cell Line Bank at the Cancer Research Center, Seoul National University College of Medicine, located in Seoul, Republic of Korea. The GH3 cell lines were infected with retroviruses comprising genes encoding […]-2, and bfGnRHR-3 which are bullfrog GnRH receptors, and rat GnRHR, and cell lines expressing each of these receptors were obtained. The GH3 cells expressing […]-3, and rat GnRHR were cultured on 12-well plates. After 24 hours, the cells were cultured again for 24 hours in a media containing no inositol, to which H^3-myoinositol was added. […] Thereafter, they were treated with GnRH having a suitable concentration, cultured at 37° C. for another 30 minutes, and then the media was eliminated. The cells were treated with 10 mM of ice-cold formic acid to terminate the reaction, and the cell extracts were mixed with Dowex anionic exchange resins. These resins were washed with distilled water, IP was extracted with 1 M ammonium formate/0.1 M formic acid, and cpm (count per minute) was determined. The GH3 cell lines were infected with retroviruses comprising genes encoding […]-2, and bfGnRHR-3 which are bullfrog GnRH receptors, and rat GnRHR, and cell lines expressing each of these receptors were obtained.

[2] = system: bfGnRHR-3; assay: Inositol phosphate (IP) production, GH3 cells expressing bfGnRHR-3; format: cell-based, bullfrog; details: log of EC50 (negative values), concentration inducing half-maximal stimulation, 30 min
From the text: (§1) The GnRH receptor, a membrane protein connected with the G protein, activates the G protein when activated by a ligand, and the activated G protein activates phospholipase C and thereby the synthesis of inositol phosphate (IP), which is the second transmitter in cells, is increased. Based on this principle, the activity of a receptor can be investigated by measuring the amount of IP within cells. GH3 cell lines were obtained from the Cell Line Bank at the Cancer Research Center, Seoul National University College of Medicine, located in Seoul, Republic of Korea. The GH3 cell lines were infected with retroviruses comprising genes encoding […]-2, and bfGnRHR-3 which are bullfrog GnRH receptors, and rat GnRHR, and cell lines expressing each of these receptors were obtained. The GH3 cells expressing […]-3, and rat GnRHR were cultured on 12-well plates. After 24 hours, the cells were cultured again for 24 hours in a media containing no inositol, to which H^3-myoinositol was added. […] Thereafter, they were treated with GnRH having a suitable concentration, cultured at 37° C. for another 30 minutes, and then the media was eliminated. The cells were treated with 10 mM of ice-cold formic acid to terminate the reaction, and the cell extracts were mixed with Dowex anionic exchange resins. These resins were washed with distilled water, IP was extracted with 1 M ammonium formate/0.1 M formic acid, and cpm (count per minute) was determined. The GH3 cell lines were infected with retroviruses comprising genes encoding […]-2, and bfGnRHR-3 which are bullfrog GnRH receptors, and rat GnRHR, and cell lines expressing each of these receptors were obtained. […] In all the cell lines it was observed that when they were treated with GnRH and the agonists, IP was formed in a concentration-dependent manner.

[3] = system: bfGnRHR-3; assay: Ligand-receptor binding assay, I125-GnRH-2 competition, membranes of GH3 cells expressing bfGnRHR-3; set-up: species or system bullfrog; details: log of IC50 (negative values); competition with I125-GnRH-2, 4° C., 16 hours
Description: To determine the binding affinity between GnRH and GnRH receptors, GnRH-2 was radiolabeled with I^125. The GH3 cells expressing bfGnRHR-1, bfGnRHR-2, bfGnRHR-3, and rat GnRHR constructed in Example 2-3 above were cultured on 100-mm dishes. After 48 hours, the cells were homogenized to obtain cellular membranes, which were then dissolved in binding buffer (40 mM Tris, pH 7.4, 2 mM MgCl2). 20 μg of membrane proteins were reacted with I^125-GnRH-2 at 4° C. for 16 hours. […] After the reaction was completed, 1^125-GnRH-2 bound to the receptors was filtered using a Brandel harvester, and cpm was measured using a γ-counter.
The GH3 cells expressing bfGnRHR-3 obtained from Example 6-1 above were treated with l^125GnRH-2 and GnRH-2 agonists and antagonists at various concentrations to determine the binding affinity of GnRH-2 agonists and antagonists toward the receptors.

[4] = system: bfGnRHR-1; assay: Inositol phosphate (IP) production, GH3 cells expressing bfGnRHR-1; format: cell-based, bullfrog; details: for Log EC50: log of EC50 (negative values), concentration inducing half-maximal stimulation, 30 min
From the text: as §1

[5] = system: Primate GnRH-2 receptor; assay: c-fos-luc luciferase activation by agonists, CV-1 cells expressing Primate GnRH-2 receptor; format: cell-based, Primates; details: luciferase activation; for Log EC50: log of EC50 (negative values); for Log EC50 / Emax (fold-induction): average of three independent experiments; for Ratio of EC50 values based on EC50 value of GnRH-2: GnRH-2 = 1
Description: Complimentary DNA (cDNA) for a Primate GnRH-2 receptor was obtained from a CV-1 cell genome. […] Plasmids having Primate GnRH-2 receptors where transfected into CV-1 cells. To assay the activity of the receptor, c-fos-luc where a luciferase gene is fused with a c-fos promoter was co-transfected as a probe gene. After 48 hours from transfection, the cells were treated with GnRH-2 agonists and then the activity of luciferase was assayed (Seong et al., Endocrinology vol 144 2003, 454-466). […] Of the GnRH-2 receptors, [[…]]GnRH-2 performed excellently, showing effects about 3 times that of a wild-type ligand, GnRH-2. […] When analogs where the 5th, 7th, and 8th amino acids of [[…]]GnRH-2 are substituted were used, it was observed that their effects were weaker than [[…]]GnRH-2, and therefore it can be seen that it is important to maintain His, Trp, and Tyr that are found at the 5th, 7th, and 8th positions of GnRH-2 as they are (FIG. 3b). Log EC50 values and Emax values of GnRH-2 agonists are average values of experiments that were conducted independently three times. Ratio^a represents the ratio of EC50 values of other GnRH analogs based on EC50 values of GnRH-2.

[6] = system: TSU-Pri cells; assay: Binding of radiolabeled GnRH to TSU-Pri prostate cancer cells and competition; set-up: species or system human; details: for reduction of radiolabeled GnRH-2 binding to TSU-Pri cells by unradiolabeled competitor: unradiolabeled peptide as competitor
Description: The radiolabeled GnRH and the cells were cultured at room temperature for 6 hours, and then washed with PBS (phosphate-buffered saline) several times to eliminate the unbound GnRH. Thereafter, the cells were isolated and radioactivity from the cells was measured using a γ-counter.

[7] = system: bfGnRHR-2; assay: Inositol phosphate (IP) production, GH3 cells expressing bfGnRHR-2; format: cell-based, bullfrog; details: log of EC50 (negative values), concentration inducing half-maximal stimulation, 30 min
From the text: as §1

[8] = system: luteinizing hormone and testosterone secretion; assay: GnRH-2 agonist-induced serum LH and testosterone levels in male rat (radioimmunoassay); format: in vivo; details: 10 μg injected
Description: Example 3: GnRH-2 Agonist-induced serum LH and testosterone levels [D-Ala^6]GnRH-2 was dissolved in saline at a concentration of 100 μg/ml, and then 10 μg of [D-Ala^6]GnRH-2 was injected into the cervix of a male rat (Sprague Dawley rat having a weight of approximately 100 g). 1, 2, 4, and 8 hours after the injection, serum was obtained from the rat. The concentration of luteinizing hormone and testosterone present in the serum was measured by radioimmunoassay.

[9] = cells expressing rat GnRH receptor

| sensitivity compared with GnRH-1 [1] | Log EC50 [2] | Binding affinity (log IC50 value) [3] | Log EC50 [4] | Log EC50 [5] | Ratio of EC50 values based on EC50 value of GnRH-2 [5] | Log EC50 [7] | fold higher sensitivity than GnRH-2 [1, 9] [fold] | fold lower sensitivity than GnRH-1 [1, 9] [fold] | SMILES | Emax (fold-induction) [5] [fold-induction] | binding of radiolabeled ligand to TSU-Pri cells ([6]; I125-radiolabeled peptide, room temperature, 6 hours) | reduction of radiolabeled GnRH-2 binding to TSU-Pri cells by unradiolabeled competitor [6] | fold lower activating concentration than GnRH-2 [4] [fold] | serum luteinizing hormone (LH) ([8]; male Sprague Dawley rat about 100 g, serum 1, 2, 4, 8 hours) | time of serum testosterone peak after injection ([8]; male rat) [h] | serum testosterone ([8]; male rat, compared with before the injection) | fold lower effect than GnRH-2 [5] [fold] |
| --- | --- | --- | --- | --- | --- | --- | --- | --- | --- | --- | --- | --- | --- | --- | --- | --- | --- |
| a sensitivity lower than 10-fold | −9.51 ± 0.10 | −8.63 ± 0.14 | −9.41 ± 0.13 | −8.39 ± 0.10 | 1 | −8.98 ± 0.14 | – | – | NC(=O)CNC(=O)[C@@H]1CCCN1C(=O)[C@H](Cc1ccc(O)cc1)NC(=O)[C@H](Cc1c[nH]c2ccccc12)NC(=O)CNC(=O)[C@H](Cc1c[nH]cn1)NC(=O)[C@H](CO)NC(=O)[C@H](Cc1c[nH]c2ccccc12)NC(=O)[C@H](Cc1c[nH]cn1)NC(=O)[C@@H]1CCC(=O)N1 [GnRH-2] ([pGlu]HWSHGWYPG-NH2) | 11.74 ± 0.31 | binding with cells was observed | the binding was reduced | – | – | – | – | – |
| a sensitivity lower than 10-fold | −9.89 ± 0.10 | −9.83 ± 0.14 | −9.91 ± 0.13 | −8.81 ± 0.12 | 0.38 | −9.91 ± 0.19 | 5 | 3.5 | C[C@@H](NC(=O)[C@H](Cc1c[nH]cn1)NC(=O)[C@H](CO)NC(=O)[C@H](Cc1c[nH]c2ccccc12)NC(=O)[C@H](Cc1c[nH]cn1)NC(=O)[C@@H]1CCC(=O)N1)C(=O)N[C@@H](Cc1c[nH]c2ccccc12)C(=O)N[C@@H](Cc1ccc(O)cc1)C(=O)N1CCC[C@H]1C(=O)NCC(N)=O [[D-Ala^6]GnRH-2, p-Glu-His-Trp-Ser-His-D-Ala-Trp-Tyr-Pro-GlyNH2] ([pGlu]HWSH[dA]WYPG-NH2) | 11.84 ± 0.47 | – | reduced in a concentration-dependent manner | ~8 | an increase of luteinizing hormone (LH) was observed in only one hour | 4 | significantly high value even after 8 hours | – |
| – | −9.22 ± 0.11 | −8.10 ± 0.11 | −9.40 ± 0.12 | −8.31 ± 0.09 | 1.20 | −9.21 ± 0.13 | – | – | NC(=O)CNC(=O)[C@@H]1CCCN1C(=O)[C@H](Cc1ccc(O)cc1)NC(=O)[C@H](Cc1c[nH]c2ccccc12)NC(=O)[C@@H](Cc1c[nH]c2ccccc12)NC(=O)[C@H](Cc1c[nH]cn1)NC(=O)[C@H](CO)NC(=O)[C@H](Cc1c[nH]c2ccccc12)NC(=O)[C@H](Cc1c[nH]cn1)NC(=O)[C@@H]1CCC(=O)N1 [[D-Trp^6]GnRH-2] ([pGlu]HWSH[dW]WYPG-NH2) | 11.20 ± 0.32 | – | – | – | – | – | – | ~1.2 |
